Data on 13 compounds can be found in US11492361B2, “Compounds useful in HIV therapy” (GlaxoSmithKline Intellectual Property Development Limited, priority 2018, dated 2022).

Where a name gives a salt, the structure may show the parent alone.

This assay relates to Jurkat HIV-luciferase clones. Description: Jurkat latency reversal assay. The format is cell-based. Conditions: Homo sapiens, Jurkat, 48 h. The procedure:
Jurkat HIV-luciferase clones were maintained in RPMI medium 1640 (Gibco by Life Technologies) containing 10% (vol/vol) fetal bovine serum (SAFC/Sigma-Aldrich) and 25 units/mL penicillin, 25 units/mL streptomycin (Gibco by Life Technologies), and were split 1:4 every 3 to 4 days to maintain a cell density of ˜0.3 to 1 million cells/mL. The Jurkat clones were maintained with the addition of 500 nM EFV in the medium. Three Jurkat cell clones (C16, I15, and N6), each harboring one or two integrated HIV proviruses expressing the luciferase reporter gene, were added at equal amounts for a total of 5,000 cells per well to 384-well plates containing compound titrations. Dose-response testing was performed on compounds dissolved in dimethyl sulfoxide (DMSO, Fisher Scientific, Merelbeke, Belgium) dispensed in duplicate serial 3-fold, 14-point titrations using a D300e Digital Droplet Dispenser (Hewlett-Packard) to give final assay concentrations of 10 μM to 2.1 pM in 50 μL of medium at 0.5% DMSO (vol/vol) final concentration. Cells and compound were incubated at 37° C. for 48 hours, unless otherwise indicated, followed by the addition of 20 μL of Steady-Glo® Luciferase (Promega). Luminescence resulting from the induction of the virally expressed luciferase was measured using an EnVision 2102 Multilabel Plate Reader (Perkin Elmer). Dose-response relationships were analyzed with GraphPad PRISM 6 using a four-parameter logistic regression model to calculate the concentration of compound that gives half-maximal response (EC50) and the maximal percent activation compared to the vehicle control.

Consider `CN[C@@H](C)C(=O)N[C@H]1CCS[C@H]2CC(C)(C)[C@@H](C(=O)Nc3ccccc3CCc3ccccc3NC(=O)[C@H]3N4C(=O)[C@@H](NC(=O)[C@H](C)NC)CCS[C@H]4CC3(C)C)N2C1=O` [compound 3, (4S,4′S,7S,7′S,9aS,9a′S)-N,N′-(ethane-1,2-diylbis(2,1-phenylene))bis(8,8-dimethyl-4-((S)-2-(methylamino)propanamido)-5-oxooctahydropyrrolo[2,1-b][1,3]thiazepine-7-carboxamide) dihydrochloride], for which the EC50 is 0.0805 µM.
Turning to `CN[C@@H](C)C(=O)N[C@H]1CCS[C@H]2CC(C)(C)[C@@H](C(=O)N[C@H](COCCOCCOC[C@@H](NC(=O)[C@H]3N4C(=O)[C@@H](NC(=O)[C@H](C)NC)CCS[C@H]4CC3(C)C)c3ccccc3)c3ccccc3)N2C1=O` [compound 38, (4S,4′S,7S,7′S,9aS,9a′S)-N,N′-((1S,1′S)-((oxybis(ethane-2,1-diyl))bis(oxy))bis(1-phenylethane-2,1-diyl))bis(8,8-dimethyl-4-((S)-2-(methylamino)propanamido)-5-oxooctahydropyrrolo[2,1-b][1,3]thiazepine-7-carboxamide)], the EC50 was found to be 0.0507 µM.
The figure for `CN[C@@H](C)C(=O)NC1CCS[C@H]2CC(C)(C)[C@@H](C(=O)N[C@H]3c4ccccc4CC[C@H]3C(=O)NCc3ccc(CNC(=O)[C@@H]4CCc5ccccc5C4NC(=O)[C@H]4N5C(=O)[C@@H](NC(=O)[C@H](C)NC)CCS[C@H]5CC4(C)C)cc3)N2C1=O` (stereo in doubt) [compound 9, (4S,4′S,7S,7′S,9aS,9a′S)-N,N′-((1R,1′R,2R,2′R)-(((1,4-phenylenebis(methylene))bis(azanediyl))bis(carbonyl))bis(1,2,3,4-tetrahydronaphthalene-2,1-diyl))bis(8,8-dimethyl-4-((S)-2-(methylamino)propanamido)-5-oxooctahydropyrrolo[2,1-b][1,3]thiazepine-7-carboxamide) dihydrochloride] is 0.0903 µM; for `CN[C@@H](C)C(=O)N[C@H]1CCS[C@H]2CC(C)(C)[C@@H](C(=O)N[C@H]3c4ccccc4C[C@H]3OCCCCCCCCCCO[C@@H]3Cc4ccccc4[C@@H]3NC(=O)[C@H]3N4C(=O)[C@@H](NC(=O)[C@H](C)NC)CCS[C@H]4CC3(C)C)N2C1=O` [compound 57, (4S,4′S,7S,7′S,9aS,9a′S)-N,N′-((1S,1′S,2R,2′R)-(decane-1,10-diylbis(oxy))bis(2,3-dihydro-1H-indene-2,1-diyl))bis(8,8-dimethyl-4-((S)-2-(methylamino)propanamido)-5-oxooctahydropyrrolo[2,1-b][1,3]thiazepine-7-carboxamide) dihydrochloride] it is 0.0085 µM; for `CN[C@@H](C)C(=S)N[C@H]1CCS[C@H]2CC(C)(C)[C@@H](C(=O)N[C@H](COCCCn3cc(COC[C@@H](NC(=O)[C@H]4N5C(=O)[C@@H](NC(=S)[C@H](C)NC)CCS[C@H]5CC4(C)C)c4ccccc4)nn3)c3ccccc3)N2C1=O` [compound 53, (4S,7S,9aS)-N-[(1S)-2-[3-(4-{[(2S)-2-{[(4S,7S,9aS)-8,8-dimethyl-4-[(2S)-2-(methylamino)propanethioamido]-5-oxo-octahydropyrrolo[2,1-b][1,3]thiazepin-7-yl]formamido}-2-phenylethoxy]methyl}-1H-1,2,3-triazol-1-yl)propoxy]-1-phenylethyl]-8,8-dimethyl-4-[(2S)-2-(methylamino)propanethioamido]-5-oxo-octahydropyrrolo[2,1-b][1,3]thiazepine-7-carboxamide] it is 0.178 µM.
Take `CN[C@@H](C)C(=S)N[C@H]1CCS[C@H]2CC(C)(C)[C@@H](C(=O)N[C@H]3c4ccccc4C[C@H]3OCCOCCO[C@@H]3Cc4ccccc4[C@@H]3NC(=O)[C@H]3N4C(=O)[C@@H](NC(=S)[C@H](C)NC)CCS[C@H]4CC3(C)C)N2C1=O` [compound 19, (4S,4′S,7S,7′S,9aS,9a′S)-N,N′-((1S,1′S,2R,2′R)-((oxybis(ethane-2,1-diyl))bis(oxy))bis(2,3-dihydro-1H-indene-2,1-diyl))bis(8,8-dimethyl-4-((S)-2-(methylamino)propanethioamido)-5-oxooctahydropyrrolo[2,1-b][1,3]thiazepine-7-carboxamide) dihydrochloride]: the EC50 is 0.0094 µM.
In the case of `CN[C@@H](C)C(=S)N[C@H]1CCS[C@H]2CC(C)(C)[C@@H](C(=O)N[C@H]3c4ccccc4C[C@H]3OCc3ccc(CO[C@@H]4Cc5ccccc5[C@@H]4NC(=O)[C@H]4N5C(=O)[C@@H](NC(=S)[C@H](C)NC)CCS[C@H]5CC4(C)C)cc3)N2C1=O` [compound 23, (4S,4′S,7S,7′S,9aS,9a′S)-N,N′-((1S,1′S,2R,2′R)-((1,4-phenylenebis(methylene))bis(oxy))bis(2,3-dihydro-1H-indene-2,1-diyl))bis(8,8-dimethyl-4-((S)-2-(methylamino)propanethioamido)-5-oxooctahydropyrrolo[2,1-b][1,3]thiazepine-7-carboxamide)], the EC50 was determined as 0.0555 µM.
`CN[C@@H](C)C(=O)N[C@H]1CCS[C@H]2CC(C)(C)[C@@H](C(=O)N[C@H]3c4ccccc4C[C@H]3OCCCCO[C@@H]3Cc4ccccc4[C@@H]3NC(=O)[C@H]3N4C(=O)[C@@H](NC(=O)[C@H](C)NC)CCS[C@H]4CC3(C)C)N2C1=O` [compound 16, (4S,4′S,7S,7′S,9aS,9a′S)-N,N′-((1S,1′S,2R,2′R)-(butane-1,4-diylbis(oxy))bis(2,3-dihydro-1H-indene-2,1-diyl))bis(8,8-dimethyl-4-((S)-2-(methylamino)propanamido)-5-oxooctahydropyrrolo[2,1-b][1,3]thiazepine-7-carboxamide)]: the EC50 turned out to be 0.0101 µM.
In the case of `CN[C@@H](C)C(=O)N[C@H]1CCS[C@H]2CC(C)(C)[C@@H](C(=O)N[C@H](C(=O)NCc3ccc(CNC(=O)[C@@H](NC(=O)[C@H]4N5C(=O)[C@@H](NC(=O)[C@H](C)NC)CCS[C@H]5CC4(C)C)c4ccccc4)cc3)c3ccccc3)N2C1=O` [compound 24, (4S,4′S,7S,7′S,9aS,9a′S)-N,N′-((1S,1′S)-((1,4-phenylenebis(methylene))bis(azanediyl))bis(2-oxo-1-phenylethane-2,1-diyl))bis(8,8-dimethyl-4-((S)-2-(methylamino)propanamido)-5-oxooctahydropyrrolo[2,1-b][1,3]thiazepine-7-carboxamide)], the EC50 amounted to 0.0479 µM.
Turning to `CN[C@@H](C)C(=O)N[C@H]1CCS[C@H]2CC(C)(C)[C@@H](C(=O)N[C@H]3c4ccccc4C[C@H]3C(=O)N3CCN(C(=O)[C@@H]4Cc5ccccc5[C@@H]4NC(=O)[C@H]4N5C(=O)[C@@H](NC(=O)[C@H](C)NC)CCS[C@H]5CC4(C)C)CC3)N2C1=O` [compound 46, (4S,7S,9aS)-N-[(1R,2R)-2-{4-[(1R,2R)-1-[(4S,7S,9aS)-8,8-dimethyl-4-[(2S)-2-(methylamino)propanamido]-5-oxo-octahydropyrrolo[2,1-b][1,3]thiazepine-7-amido]-2,3-dihydro-1H-indene-2-carbonyl]piperazine-1-carbonyl}-2,3-dihydro-1H-inden-1-yl]-8,8-dimethyl-4-[(2S)-2-(methylamino)propanamido]-5-oxo-octahydropyrrolo[2,1-b][1,3]thiazepine-7-carboxamide], the EC50 turned out to be 0.127 µM.
Take `CN[C@@H](C)C(=O)N[C@H]1CCS[C@H]2CC(C)(C)[C@@H](C(=O)N[C@H](COCc3ccc4cc(COC[C@@H](NC(=O)[C@H]5N6C(=O)[C@@H](NC(=O)[C@H](C)NC)CCS[C@H]6CC5(C)C)c5ccccc5)ccc4c3)c3ccccc3)N2C1=O` [compound 62, (4S,4′S,7S,7′S,9aS,9a′S)-N,N′-((1S,1′S)-((naphthalene-2,6-diylbis(methylene))bis(oxy))bis(1-phenylethane-2,1-diyl))bis(8,8-dimethyl-4-((S)-2-(methylamino)propanamido)-5-oxooctahydropyrrolo[2,1-b][1,3]thiazepine-7-carboxamide)]: the EC50 stood at 0.0042 µM.
Consider `CN[C@@H](C)C(=O)N[C@H]1CCS[C@H]2CC(C)(C)[C@@H](C(=O)N[C@H](COCC#CC#CCOC[C@@H](NC(=O)[C@H]3N4C(=O)[C@@H](NC(=S)[C@H](C)NC)CCS[C@H]4CC3(C)C)c3ccccc3)c3ccccc3)N2C1=O` [compound 34, (4S,7S,9aS)-N-((S)-2-((6-((S)-2-((4S,7S,9aS)-8,8-dimethyl-4-((S)-2-(methylamino)propanamido)-5-oxooctahydropyrrolo[2,1-b][1,3]thiazepine-7-carboxamido)-2-phenylethoxy)hexa-2,4-diyn-1-yl)oxy)-1-phenylethyl)-8,8-dimethyl-4-((S)-2-(methylamino)propanethioamido)-5-oxooctahydropyrrolo[2,1-b][1,3]thiazepine-7-carboxamide], for which the EC50 worked out at 0.0363 µM.
Turning to `CN[C@@H](C)C(=S)N[C@H]1CCS[C@H]2CC(C)(C)[C@@H](C(=O)N[C@H](C(=O)N3CCN(C(=O)[C@@H](NC(=O)[C@H]4N5C(=O)[C@@H](NC(=S)[C@H](C)NC)CCS[C@H]5CC4(C)C)c4ccccc4)CC3)c3ccccc3)N2C1=O` [compound 27, (4S,4′S,7S,7′S,9aS,9a′S)-N,N′-((1S,1′S)-piperazine-1,4-diylbis(2-oxo-1-phenylethane-2,1-diyl))bis(8,8-dimethyl-4-((S)-2-(methylamino)propanethioamido)-5-oxooctahydropyrrolo[2,1-b][1,3]thiazepine-7-carboxamide) dihydrochloride], the EC50 was 0.0522 µM.
